Measured values as given in patent publication US20240284910A1, “HERBICIDAL COMPOSITIONS” (SYNGENTA CROP PROTECTION AG, priority 2021, published 2024).

Legend:
Assay type in all cases: in vivo
Settings in all cases: sprayed, evaluated after 13 days
Stellaria media (STEME) = assay: Post-emergence glasshouse phytotoxicity test, STEME
Experimental: (§1) Seeds of Chenopodium album (CHEAL), Ipomoea hederacea (IPOHE), Amaranthus retroflexus (AMARE) and Abutilon threophrasti (ABUTH) and Stellaria media (STEME) were sown in standard sterilised soil in pots. After cultivation for 8 days under controlled conditions in a glasshouse (at 24/19° C., day/night; 16 hours light; no humidity control), the plants were sprayed at 500 I/Ha with an aqueous spray solution derived from the formulation of the technical active ingredients in a small amount of acetone and a solvent and emulsifier mixture referred to as IF50 (11.12% Emulsogen EL360 TM+44.44% N-methylpyrrolidone+44.44% Dowanol DPM glycol ether), to create a 50 g/l solution which was then diluted using 0.2% Genapol XO80 (CAS Number: 9043-30-5) as diluent to give the desired final dose of test compound. Where active ingredients were applied as mixtures, aqueous spray solutions were prepared as above, containing both active ingredients. The test plants were then grown under controlled conditions in a glasshouse (at 24/18° C., day/night; 15 hours light; 50% humidity) and watered twice daily. After 13 days, the test was evaluated visually for percentage phytotoxicity to the plants (where 100=total damage to plant; 0=no damage to plant) when compared to control untreated plants. Two to four replicates were applied for each treatment in a randomised block test design.
(§2) 22., E=X+Y−(X*Y/100), where • X=average percent phytotoxicity of herbicide A when applied at a certain rate • Y=average percent phytotoxicity using herbicide B when applied at a certain rate • E=the expected effect of the mixture of herbicides A and B as calculated from the Colby formula.

[1] = test system: Amaranthus retroflexus (AMARE); assay: Post-emergence glasshouse phytotoxicity test, AMARE
Experimental: as §1, §2

[2] = test system: Chenopodium album (CHEAL); assay: Post-emergence glasshouse phytotoxicity test, CHEAL
Experimental: as §1, §2

[3] = test system: Abutilon threophrasti (ABUTH); assay: Post-emergence glasshouse phytotoxicity test, ABUTH
Experimental: as §1, with “Where active ingredients were applied as mixtures, aqueous spray solutions were prepared as above, containing both active ingredients. The test plants were then grown under controlled conditions in a glasshouse (at 24/18° C., day/night; 15 hours light; 50% humidity) and watered twice daily.” left out, “Two to four replicates were applied for each treatment in a randomised block test design.” left out
as §2

[4] = test system: Ipomoea hederacea (IPOHE); assay: Post-emergence glasshouse phytotoxicity test, IPOHE
Experimental: as §1, §2

| Compound | Observed (O) percentage phytotoxicity (Stellaria media (STEME); rate 6.25 g/ha) [%] | Observed (O) percentage phytotoxicity (Stellaria media (STEME); rate 12.5 g/ha, 100=total damage, 0=no damage) [%] | Observed (O) percentage phytotoxicity ([1]; rate 6.25 g/ha) [%] | Observed (O) percentage phytotoxicity ([1]; rate 25 g/ha) [%] | Observed (O) percentage phytotoxicity ([2]; rate 6.25 g/ha) [%] | Observed (O) percentage phytotoxicity ([2]; rate 12.5 g/ha) [%] | Observed (O) percentage phytotoxicity ([3]; rate 12.5 g/ha) [%] | Observed (O) percentage phytotoxicity ([4]; rate 6.25 g/ha) [%] | Observed (O) percentage phytotoxicity ([4]; rate 12.5 g/ha) [%] | Observed (O) percentage phytotoxicity (Stellaria media (STEME); rate 0.16 g/ha) [%] | Observed (O) percentage phytotoxicity (Stellaria media (STEME); rate 0.31 g/ha) [%] | Observed (O) percentage phytotoxicity ([1]; rate 0.31 g/ha) [%] | Observed (O) percentage phytotoxicity ([2]; rate 0.31 g/ha) [%] | Observed (O) percentage phytotoxicity ([3]; rate 0.31 g/ha) [%] | Observed (O) percentage phytotoxicity ([4]; rate 0.16 g/ha) [%] |
| --- | --- | --- | --- | --- | --- | --- | --- | --- | --- | --- | --- | --- | --- | --- | --- |
| CN1C[C@H](c2cccc(C(F)(F)F)c2)[C@@H](C(=O)Nc2ccccc2F)C1=O [I-A] | 33 | 58 | 0 | 8 | 0 | 28 | 10 | 25 | 38 | – | – | – | – | – | – |
| Cc1nnc(NC(=O)c2ccc(C(F)(F)F)n3c(CS(=O)(=O)C(C)C)nnc23)o1 [II] | – | – | – | – | – | – | – | – | – | 13 | 6 | 5 | 24 | 34 | 4 |
